Assay results published in patent publication US20250025443A1, “COMPOUNDS AND METHODS FOR TREATING CORONA VIRUSES” (CLEAR CREEK BIO, INC., priority 2021, published 2025).

These molecules were tested against SARS-CoV-2 Papain-Like Protease (PLpro) (Severe acute respiratory syndrome coronavirus 2 (2019-nCoV) (SARS-CoV-2), UniProt P0DTD1) (assay: biochemical). Conditions: PLpro 6.25 nM, substrate 25 μM, 60 min at 25° C.; for more potent compounds PLpro 1 nM, 120 min; read-out: PLpro IC50.
Molecule `Cc1ccc(O)cc1C(=O)N[C@H](C)c1cccc2ccccc12` [Compound 101, (R)-5-Hydroxy-2-methyl-N-(1-(naphthalen-1-yl)ethyl)benzamide] has an IC50 of 1000 to 5000 nM.

Same assay, conditions: PLpro enzymatic fluorescence assay; class symbols; read-out: PLpro IC50
For `Cc1ccc(O[C@@H]2CCCC[C@H]2N)cc1CNC1(c2cccc3ccccc23)CC1` (single isomer, unassigned) [Compound 429], the IC50 was 100 to 1000 nM. For `Cc1ccc(OC[C@@H]2CCN2C)cc1C(=O)NC1(c2cc(-c3ccco3)cc3ncccc23)CC1` (stereo in doubt) [Compound 604, N-(1-(7-(Furan-2-yl)quinolin-5-yl)cyclopropyl)-2-methyl-5-((1-methylazetidin-2-yl)methoxy)benzamide], the IC50 was under 100 nM. With `Cc1ccc([N+](=O)[O-])cc1C(=O)N[C@H](C)c1cccc2ccccc12` [Compound 104, (R)-2-Methyl-N-(1-(naphthalen-1-yl)ethyl)-5-nitrobenzamide] the IC50 was over 5000 nM.

Same assay, conditions: SARS-CoV-2 PLpro enzymatic fluorescence assay; read-out: PLpro IC50
Work on “2-Methyl-5-((2-methylazetidin-2-yl)methoxy)-N-(1-(naphthalen-1-yl)cyclopropyl)benzamide [Compound 394]” yielded an IC50 of under 100 nM. Molecule “2-Methyl-N-(1-(naphthalen-1-yl)cyclopropyl)-5-(piperidin-2-ylmethoxy)benzamide [Compound 339]” has an IC50 of under 100 nM. “5-(2-Hydroxyethoxy)-2-methyl-N-(1-(naphthalen-1-yl)cyclopropyl)benzamide [Compound 393]” was tested, and the IC50 was 100 to 1000 nM. With “5-((1-(2-Hydroxyethyl)azetidin-2-yl)methoxy)-2-methyl-N-(1-(naphthalen-1-yl)cyclopropyl)benzamide [Compound 341]” the IC50 was under 100 nM. `Cc1ccc(O[C@@H]2CC[C@@H]2N)cc1C(=O)NC1(c2cccc3ccccc23)CC1` (racemic) [Compound 406, rac-5-((1S,2R)-2-Aminocyclobutoxy)-2-methyl-N-(1-(naphthalen-1-yl)cyclopropyl)benzamide] gave an IC50 of under 100 nM. `Cc1ccc(OC[C@H]2C[C@@H](O)CN2)cc1C(=O)NC1(c2cccc3ccccc23)CC1` (racemic) [Compound 416, rac-5-(((2R,4R)-4-Hydroxypyrrolidin-2-yl)methoxy)-2-methyl-N-(1-(naphthalen-1-yl)cyclopropyl)benzamide] gave an IC50 of under 100 nM. Molecule `C=Cc1cc(C2(NC(=O)c3cc(O[C@@H](C)[C@@H]4CCN4C)ccc3C)CC2)c2cccnc2c1` (relative stereo) [Compound 757, 2-Methyl-5-((S)-1-((S)-1-methylazetidin-2-yl)ethoxy)-N-(1-(7-vinylquinolin-5-yl)cyclopropyl)benzamide] has an IC50 of under 100 nM. `Cc1ccc(OC[C@H]2C[C@@H](F)CN2)cc1C(=O)NC1(c2cccc3ccccc23)CC1` (single isomer, unassigned) [Compound 438] showed an IC50 of under 100 nM. Work on `Cc1ccc(OC[C@H]2C[C@H](O)CN2C)cc1C(=O)NC1(c2cccc3ccccc23)CC1` (single isomer, unassigned) [Compound 439] yielded an IC50 of under 100 nM. For `Cc1ccc(OC[C@H]2C[C@@H](O)CN2C)cc1C(=O)NC1(c2cccc3ccccc23)CC1` (single isomer, unassigned) [Compound 440], the IC50 was under 100 nM. With `Cc1ccc(OC[C@H]2C[C@H](F)CN2C)cc1C(=O)NC1(c2cccc3ccccc23)CC1` (single isomer, unassigned) [Compound 441] the IC50 was under 100 nM. `Cc1ccc(OC[C@H]2C[C@H](F)CN2)cc1C(=O)NC1(c2cccc3ccccc23)CC1` (single isomer, unassigned) [Compound 442] was tested, and the IC50 was under 100 nM. In the case of `Cc1ccc(NS(C)(=O)=O)cc1C(=O)N[C@H](C)c1cccc2ccccc12` [Compound 100, (R)-2-Methyl-5-(methylsulfonamido)-N-(1-(naphthalen-1-yl)ethyl)benzamide], the IC50 is reported as over 5000 nM. In the case of `Cc1cc2nc[nH]c2cc1C(=O)N[C@H](C)c1cccc2ccccc12` [Compound 102, (R)-5-Methyl-N-(1-(naphthalen-1-yl)ethyl)-1H-benzo[d]imidazole-6-carboxamide], the IC50 is reported as 1000 to 5000 nM. In the case of `Cc1ccc([N+](=O)[O-])cc1C(=O)NC(c1cccc2ccccc12)C1CCOCC1` (stereo not shown) [Compound 105, 2-Methyl-N-(naphthalen-1-yl(tetrahydro-2H-pyran-4-yl)methyl)-5-nitrobenzamide], the IC50 is reported as over 5000 nM.
